The record followed here is ChEMBL document CHEMBL1201862, “PubChem BioAssay data set” (2004).

Among the test systems are 786-0; TK-10; U-251; HL-60; OVCAR-3; RXF 393; EKVX; SK-MEL-2; CAKI-1; Hs-578T; MDA-N; SK-OV-3; OVCAR-8; LOX IMVI; SN12C; BT-549; HOP-62; SW-620; SK-MEL-28; SF-539.
Holding throughout (assay): NCI anticancer screen, dose series, 48 h

Molecules are shown by their SMILES.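 Method: 48-hour compound exposure of cells in 96-well plates, five concentrations, linear interpolation of endpoints. Here, GI50 denotes the concentration required for 50% inhibition of growth.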 Activity calls are given as the source filed them. Cut-off read from the data, not from the text of the source: active = GI50 up to about 1.1 µM and inactive = higher. A value given as a limit tells only on which side of the number the result lay.

Take `CCOC(=O)N/N=C(/OCC)c1ccccc1`: the GI50 in the assay on 786-0, in the assay on TK-10, in the assay on U-251, in the assay on HL-60, in the assay on OVCAR-3 and in the assay on RXF 393 was > 100 µM (inactive) each time. The GI50 in the assay on EKVX, in the assay with SK-MEL-2, in the assay on CAKI-1, in the assay on Hs-578T, in the assay with MDA-N and with SK-OV-3 was > 100 µM (inactive) each time. Also, the GI50 in the assay on OVCAR-8, in the assay with LOX IMVI, in the assay on SN12C, in the assay on BT-549, with HOP-62 and in the assay with SW-620 was > 100 µM (inactive) throughout. Moreover, the GI50 in the assay on SK-MEL-28 and with SF-539 was > 100 µM (inactive) in each case.
For `O=C1NC(N2CCOCC2)=N/C1=C\c1ccco1`, the GI50 in the assay with 786-0, with TK-10, in the assay with U-251, with HL-60, in the assay with OVCAR-3 and in the assay with RXF 393 was > 100 µM (inactive) in each case. In addition, the GI50 in the assay with EKVX, with SK-MEL-2, with CAKI-1, with Hs-578T, in the assay with MDA-N and in the assay on SK-OV-3 was > 100 µM (inactive) in each case. Further, the GI50 with OVCAR-8, in the assay on LOX IMVI, in the assay on SN12C, with BT-549, in the assay on HOP-62 and in the assay on SW-620 was > 100 µM (inactive) each time. In addition, the GI50 in the assay on SK-MEL-28 and in the assay on SF-539 was > 100 µM (inactive) each time.
In the case of `CC(CN(C)C)C(=O)/C=C/c1ccc(Cl)c(Cl)c1` (stereo not given), the GI50 is 0.766 µM (active) in the assay on 786-0; 2.02 µM (inactive) in the assay with TK-10; 1.26 µM (inactive) in the assay with U-251; 1.62 µM (inactive) in the assay on HL-60; 1.78 µM (inactive) in the assay on OVCAR-3; 12.6 µM (inactive) with RXF 393. For the same molecule, the GI50 in the assay with EKVX is 1.7 µM (inactive); in the assay on SK-MEL-2 it was 2 µM (inactive); in the assay on CAKI-1, 2 µM (inactive); in the assay with Hs-578T, 3.69 µM (inactive); in the assay on MDA-N it was 2.07 µM (inactive); in the assay on SK-OV-3 it was 4.55 µM (inactive). In addition, the GI50 is 1.52 µM (inactive) in the assay with OVCAR-8; 1.56 µM (inactive) with LOX IMVI; 1.58 µM (inactive) in the assay on SN12C; 2.14 µM (inactive) in the assay on BT-549; 2.96 µM (inactive) in the assay with HOP-62; 2.07 µM (inactive) with SW-620. In addition, the GI50 with SK-MEL-28 was 3.37 µM (inactive); in the assay on SF-539, 1.46 µM (inactive).
As to `NS(=O)(=O)c1ccc(/N=N/c2nc3[nH]cnc(=S)c3[nH]2)cc1`, the GI50 with 786-0 is 0.507 µM (active); with TK-10 it was 0.474 µM (active); in the assay on U-251 it was 6.24 µM (inactive); in the assay with HL-60 it was 2.77 µM (inactive); in the assay on OVCAR-3, 1.22 µM (inactive); with RXF 393, 1.03 µM (active). The GI50 with EKVX is 2.21 µM (inactive); in the assay on SK-MEL-2, 0.971 µM (active); in the assay on CAKI-1, 1.42 µM (inactive); with Hs-578T, 6.41 µM (inactive); in the assay on MDA-N it was 0.684 µM (active); in the assay with SK-OV-3, 0.411 µM (active). Further, the GI50 was 0.593 µM (active) with OVCAR-8; 0.236 µM (active) in the assay with LOX IMVI; 1.87 µM (inactive) in the assay with SN12C; 1.3 µM (inactive) in the assay with BT-549; 0.564 µM (active) in the assay with HOP-62; 2.29 µM (inactive) with SW-620. The results for the GI50 with SK-MEL-28 and in the assay on SF-539 were 10.6 µM (inactive) and 3.92 µM (inactive), respectively.
